Measured values reported in US5346897A, “Agents for potentiating the effects of antitumor agents and combating multiple drug resistance” (Burroughs Wellcome Co., priority 1992, dated 1994).
Where two headings read alike, the source gives them in different places. *1 amine or outer side, *2 acyl side, *3 side chain or, on linkers, in order; H or OH if unused. Where a SMILES comes first, the peptide text is derived from it. Bridges are numbered along the chain shown (N, C = ends). Roman numbers before positions name the chains, in order. [ ]: non-standard residue; d: D form. Actinocin(9to1) = Cc1c2oc3c(C)ccc(C(=O)[*:1])c3nc-2c(C(=O)[*:2])c(N)c1=O; NMeV = CN[C@H](C(=O)O)C(C)C; Sar = CNCC(=O)O

Tests used:
[1] = tested on: Chinese hamster ovary (CHO) tissue culture cells (AuxB1 and C5S32); assay: Cytotoxicity of Actinomycin D alone in Chinese hamster ovary cells (AuxB1 and C5S32); type: cell-based
[2] = tested on: resistant sublines of murine leukemia cells; details: Tsuruo et al., Cancer Res.; cited from earlier work
in vitro [3] = type: cell-based, Chinese hamster; details: hamster, auxb1 cho cells
[4] = tested on: AuxB1 Chinese hamster ovary cells (wildtype); assay: in vitro; type: cell-based; details: auxb1 cho cells, 96 h
[5] = In vitro cytotoxicity of potentiating agents in Chinese hamster ovary cells, multidrug resistant C5S32 line, MTT; type: cell-based; details: hamster, c5s32 cho cells, C5S32 drug resistant, no Act D, untreated = 1.00, read-out: Normalized absorbance (cell survival), potentiating agent alone, fraction of untreated culture
[6] = tested on: C5S32 Chinese hamster ovary cells (drug resistant); assay: as above; type: cell-based; details: 96 h, Act D alone = 1.00
[7] = tested on: KB 3-1 human epidermoid carcinoma cells (wildtype); details: kb 3-1 cells, 96 h
Experimental: (§1) The procedure for assaying the cytotoxicity of potentiating agents with human KB epidermoid carcinoma cells is essentially the same as the assay procedure described above for use with Chinese hamster ovary cells. […] After 48 hours of incubation at 37° C., the media is changed and cells are treated with actinomycin D at 0.1 nM (3-1) or 20 nM (V-i). The test potentiating agent is introduced to one-half the untreated cultures and onehalf the Act D treated cultures at 1 and 10 μM. After 96 hours of additional incubation at 37° C, 0.5 mg/ml MTT dye is added, the cells are incubated for three hours, after which the cells are dissolved in DMSO, and the absorbance is then read at 570 nm.

in vitro [8] = details: human, kb 3-1 cells
Experimental: as §1

[9] = In vitro cytotoxicity of potentiating agents in human KB epidermoid carcinoma cells, drug resistant KB V-1, MTT; details: human, kb v-1 cells
Experimental: as §1

[10] = tested on: KB V-1 human epidermoid carcinoma cells (drug resistant); assay: as above; details: KB V-1 drug resistant, 96 h, Act D alone = 1.00
Experimental: as §1

Cc1c2oc3c(C)ccc(C(=O)N[C@@H]4C(=O)N[C@H](C(C)C)C(=O)N5CCC[C@H]5C(=O)N(C)CC(=O)N(C)[C@@H](C(C)C)C(=O)O[C@@H]4C)c3nc-2c(C(=O)N[C@@H]2C(=O)N[C@H](C(C)C)C(=O)N3CCC[C@H]3C(=O)N(C)CC(=O)N(C)[C@@H](C(C)C)C(=O)O[C@@H]2C)c(N)c1=O [Actinomycin D] (I: T[dV]P[Sar][NMeV] / II: T[dV]P[Sar][NMeV]; ester I:1-I:C, II:1-II:C; linker I:N-II:N via Actinocin(9to1))
reduction in cell number below the value of completely untreated cultures ([1]; Act D alone (0.01 μM AuxB1, 0.5 μM C5S32), in most experiments): 10-20%
resistance of C5S32 cells to Actinomycin D compared to the parental AuxB1 cell line ([1]; C5S32 vs AuxB1): about 200 fold

COc1ccc([C@@H]2Sc3ccccc3N(CCN(C)C)C(=O)[C@@H]2OC(C)=O)cc1 [diltiazem]
enhancement of the activity of antitumor agents against resistant sublines of murine leukemia cells [2]: enhance the activity of antitumor agents

COC(=O)C1=C(C)NC(C)=C(C(=O)OCCN(C)Cc2ccccc2)C1c1cccc([N+](=O)[O-])c1 (stereo not shown) [nicardipine]
enhancement of the activity of antitumor agents against resistant sublines of murine leukemia cells [2]: enhance the activity of antitumor agents

CN(C)CCCN1c2ccccc2CCc2ccc(Cl)cc21 [clomipramine]
enhancement of the activity of antitumor agents against resistant sublines of murine leukemia cells [2]: enhance the activity of antitumor agents

CCOC(=O)/C=C/c1cccc(/C(=C/CN2CCCC2)c2ccc(C)cc2)n1 [Compound (B), Ethyl (E)-3-{6-[3-pyrrolidino-l-(4-tolyl)prop-lE-enyl]-2-pyridyl}acrylate]
viability at 96 h, 1 µM (in vitro [3]): 92%
viability at 96 h, 10 µM (in vitro [3]): 93%
Normalized absorbance (cell survival), potentiating agent + Act D, fraction of Act D alone ([4]; 1 µM): 0.63
Normalized absorbance (cell survival), potentiating agent + Act D, fraction of Act D alone ([4]; 10 µM): 0.29
viability at 96 h, 1 µM ([5]; potentiating agent 1 μM): 77%
viability at 96 h, 10 µM ([5]; potentiating agent 10 μM): 52%
Normalized absorbance (cell survival), potentiating agent + Act D, fraction of Act D alone ([6]; potentiating agent 1 μM + Act D 0.5 μM): 0.63
Normalized absorbance (cell survival), potentiating agent + Act D, fraction of Act D alone ([6]; potentiating agent 10 μM + Act D 0.5 μM): 0.14
Normalized absorbance (cell survival), potentiating agent + Act D, fraction of Act D alone ([7]; 1 µM): 0.55
Normalized absorbance (cell survival), potentiating agent + Act D, fraction of Act D alone ([7]; 10 µM): 0.45
viability at 96 h, 1 µM (in vitro [8]): 58%
viability at 96 h, 10 µM (in vitro [8]): 37%
viability at 96 h, 1 µM [9]: 36%
viability at 96 h, 10 µM [9]: 14%
Normalized absorbance (cell survival), potentiating agent + Act D, fraction of Act D alone ([10]; potentiating agent 1 μM + actinomycin D 20 nM): 0.48
Normalized absorbance (cell survival), potentiating agent + Act D, fraction of Act D alone ([10]; potentiating agent 10 μM + actinomycin D 20 nM): 0.04

COc1ccc(CCN(C)CCCC(C#N)(c2ccc(OC)c(OC)c2)C(C)C)cc1OC (stereo not shown) [Verapamil]
enhancement of the activity of antitumor agents against resistant sublines of murine leukemia cells [2]: enhance the activity of antitumor agents

CCN(CC)CCn1c(=O)c(Cc2ccc(OC)cc2)nc2ccccc21 [caroverine]
enhancement of the activity of antitumor agents against resistant sublines of murine leukemia cells [2]: enhance the activity of antitumor agents

C=C[C@H]1C[N@@]2CC[C@H]1C[C@@H]2[C@@H](O)c1ccnc2ccc(OC)cc12 [quinidine]
enhancement of the activity of antitumor agents against resistant sublines of murine leukemia cells [2]: enhance the activity of antitumor agents

CN1CCN(CCCN2c3ccccc3Sc3ccc(C(F)(F)F)cc32)CC1 [trifluoperazine]
enhancement of the activity of antitumor agents against resistant sublines of murine leukemia cells [2]: enhance the activity of antitumor agents
